# Assay results from patent US4241052A, “Novel nitrosourea compounds and process for preparing the same” (Tanabe Seiyaku Co., Ltd., priority 1978, dated 1980).
# Columns and labels:
# [1] = system: Ehrlich ascites carcinoma; assay: Preventive effect against the growth of Ehrlich ascites carcinoma (Method A); type: in vivo, mice (ICR, female); details: for therapeutic index (M.T.D./M.E.D.), times greater than that of GANU: Ehrlich ascites tumor, relative to GANU; for inhibition in vivo at 0.39 mg/kg: 0.39 mg/kg/day i.p.; for inhibition in vivo at 0.78 mg/kg: 0.78 mg/kg/day i.p.; for inhibition in vivo at 1.56 mg/kg: 1.56 mg/kg/day i.p.; for inhibition in vivo at 25 mg/kg: 25 mg/kg/day i.p.; for minimal effective dose: 168 h, min dose, 100% inhibition, read-out: MED (Minimum Effective Dose); for inhibition in vivo at 0.19 mg/kg: 0.19 mg/kg/day i.p.
# Description: (§1) (A) Preventive effect against the growth of Ehrlich ascites tumor
# (§2) 10^6 tumor cells of Ehrlich ascites carcinoma were inoculated intraperitoneally into a group of five femal mice (ICR mice, body weight: 19-23 g). A test compound was dissolved in a physiological saline solution and administered intraperitoneally to the mice. The administration of the test compound was began 24 hours after the inoculation of the tumor cells and performed once a day for 5 days. The volume of ascites in the treated mice were measured after 7 days of the experiment.
# Leukemia L-1210 = assay: Effect on life span of mice implanted with leukemic cells of L-1210 (Method B); type: in vivo, mice (BDF1, male); details: for increase in the average life span: five consecutive days; for 60-day survivors (mice survived/mice used) / ILS: 5 days
# Description: (B) Effect on the life span of mice implanted with leukemic cells of L-1210
# 10^5 leukemic cells of L-1210 were inoculated intraperitoneally into a group of four male mice (BDF1 mice, body weight: 19-23 g). A test compound was dissolved in a physiological saline solution and administered intraperitoneally to the mice. The administration of the test compound was began 24 hours after the inoculation of the leukemic cells and performed once a day for 5 days. The survival days of the treated mice were observed.
# [2] = Preventive effect against the growth of Ehrlich ascites carcinoma (Method A); type: in vivo, mice (ICR, female); details: mouse, in vivo, ip; max dose, 100% inhibition without death; doses of the table in mg/kg/day; read-out: MTD (Maximum Tolerated Dose)
# Description: as §1, §2
# [3] = Mus musculus, Ehrlich, ip, 120 h, 5 days, read-out: Inhibition ratio
# [4] = Mus musculus, Ehrlich, ip, 120 h, 6.25 mg/kg/day i.p., 5 days, read-out: Inhibition ratio
# [5] = Mus musculus, Ehrlich, ip, 120 h, 100 mg/kg/day i.p., 5 days, read-out: Inhibition ratio
# [6] = Mus musculus, Ehrlich, ip, 120 h, 400 mg/kg/day i.p., 5 days, read-out: Inhibition ratio
# [7] = Mus musculus, Ehrlich, ip, doses of the table in mg/kg/day
# [8] = Mus musculus, Ehrlich, ip, 120 h, 3.12 mg/kg/day i.p., 5 days, read-out: Inhibition ratio
# [9] = Mus musculus, Ehrlich, ip, 120 h, 12.5 mg/kg/day i.p., 5 days, read-out: Inhibition ratio
# [10] = Mus musculus, Ehrlich, ip, 120 h, 50 mg/kg/day i.p., 5 days, read-out: Inhibition ratio
Structure (SMILES),Therapeutic index (MTD/MED) [1],MTD at 168 h [2],"inhibition in vivo at 0.39 mg/kg [1, 3]","inhibition in vivo at 0.78 mg/kg [1, 3]","inhibition in vivo at 1.56 mg/kg [1, 3]","inhibition in vivo at 6.25 mg/kg [1, 4]","inhibition in vivo at 25 mg/kg [1, 3]","inhibition in vivo at 100 mg/kg [1, 5]","minimal effective dose [1, 7]",other results
COc1ccc(CN(C(=O)N(CCCl)N=O)C2O[C@H](CO)[C@@H](O[C@H]3O[C@H](CO)[C@@H](O)[C@H](O)[C@H]3O)[C@H](O)[C@H]2O)cc1 (some centres unmarked),,,,,,,,,,"therapeutic index (M.T.D./M.E.D.), times greater than that of GANU [1]: about 8 times"
O=NN(CCCl)C(=O)N(Cc1cccs1)C1O[C@H](CO)[C@@H](O[C@H]2O[C@H](CO)[C@@H](O)[C@H](O)[C@H]2O)[C@H](O)[C@H]1O (some centres unmarked),,,,,,,,,,"therapeutic index (M.T.D./M.E.D.), times greater than that of GANU [1]: about 8 times"
O=NN(CCCl)C(=O)N(Cc1ccccc1)C1O[C@H](CO)[C@@H](O[C@H]2O[C@H](CO)[C@@H](O)[C@H](O)[C@H]2O)[C@H](O)[C@H]1O (some centres unmarked),,,,,,,,,,"therapeutic index (M.T.D./M.E.D.), times greater than that of GANU [1]: about 8 times"
O=NN(CCCl)C(=O)N(CC1CO1)C1OC[C@H](O)[C@H](O)[C@H]1O (stereo partly drawn) [1-(2-chloroethyl)-1-nitroso-3-(oxiran-2-yl-methyl)-3-(L-arabinopyranosyl)urea],,,,,,,,,,increase in the average life span (Leukemia L-1210; 1.05 mg/kg i.p.): about 30%
O=NN(CCCl)C(=O)N(Cc1cccs1)C1OC[C@H](O)[C@H](O)[C@H]1O (stereo partly drawn) [1-(2-chloroethyl)-1-nitroso-3-(thiophen-2-yl-methyl)-3-(L-arabinopyranosyl)urea],,,,,,,,,,increase in the average life span (Leukemia L-1210; 0.35 mg/kg i.p.): about 30%
O=NN(CCCl)C(=O)N(CC1CC1)C1OC[C@H](O)[C@H](O)[C@H]1O (stereo partly drawn) [1-(2-chloroethyl)-1-nitroso-3-cyclopropylmethyl-3-(L-arabinopyranosyl)urea],,,,,,,,,,increase in the average life span (Leukemia L-1210; 1.1 mg/kg i.p.): about 30%
O=NN(CCCl)C(=O)N(CC1CCCO1)C1O[C@H](CO)[C@H](O)[C@H](O)[C@H]1O (stereo partly drawn) [1-(2-chloroethyl)-1-nitroso-3-tetrahydrofurfuryl-3-(D-galactopyranosyl)urea],,,,,,,,,,increase in the average life span (Leukemia L-1210; 1.7 mg/kg i.p.): about 30%
"O=NN(CCCl)C(=O)NC1CCCCC1 [CCNU, 1-(2-chloroethyl)-1-nitroso-3-cyclohexylurea, reference compound]",4,,,,,,,,,"Inhibition ratio ([1]; 3.12 mg/kg/day i.p., 5 days): 21.1%; Inhibition ratio ([1]; 6.25 mg/kg/day i.p., 5 days): 33.3%; Inhibition ratio ([1]; 12.5 mg/kg/day i.p., 5 days): 100%; Inhibition ratio ([1]; 50 mg/kg/day i.p., 5 days): 100%; Toxic (number of mice died/number of mice used) ([1]; 100 mg/kg/day i.p., 5 days): 5/5; MTD (Maximum Tolerated Dose) ([1]; max dose, 100% inhibition without death, doses of the table in mg/kg/day, 10080 min): 50"
"O=NN(CCCl)C(=O)N(Cc1ccccc1)C1O[C@H](CO)[C@@H](O[C@H]2O[C@H](CO)[C@@H](O)[C@H](O)[C@H]2O)[C@H](O)[C@H]1O (stereo partly drawn) [Compound 1, 1-(2-chloroethyl)-1-nitroso-3-benzyl-3-[O-α-D-glucopyranosyl-(1→4)-D-glucopyranosyl]urea]",256,400 mg/kg/day,9.3%,66.7%,100%,100%,100%,100%,1.56 mg/kg/day,"60-day survivors (mice survived/mice used) (Leukemia L-1210; 25 mg/kg/day i.p.): 0/4; ILS (Leukemia L-1210; 25 mg/kg/day i.p.): 55.2%; 60-day survivors (mice survived/mice used) (Leukemia L-1210; 100 mg/kg/day i.p.): 1/4; ILS (Leukemia L-1210; 100 mg/kg/day i.p.): > 236.8%; 60-day survivors (mice survived/mice used) (Leukemia L-1210; 200 mg/kg/day i.p.): 4/4; ILS (Leukemia L-1210; 200 mg/kg/day i.p.): > 589.7%; Toxic (number of mice died/number of mice used) ([1]; 800 mg/kg/day i.p., 5 days): 5/5; inhibition in vivo at 400 mg/kg [1, 6]: 100%"
"Cc1ccc(CN(C(=O)N(CCCl)N=O)C2O[C@H](CO)[C@@H](O[C@H]3O[C@H](CO)[C@@H](O)[C@H](O)[C@H]3O)[C@H](O)[C@H]2O)cc1 (stereo partly drawn) [Compound 2, 1-(2-chloroethyl)-1-nitroso-3-(p-methylbenzyl)-3-[O-α-D-glucopyranosyl-(1→4)-D-glucopyranosyl]urea]",256,400 mg/kg/day,12.8%,74.4%,100%,100%,100%,100%,1.56 mg/kg/day,"Toxic (number of mice died/number of mice used) ([1]; 800 mg/kg/day i.p., 5 days): 5/5; inhibition in vivo at 400 mg/kg [1, 6]: 100%"
"O=NN(CCCl)C(=O)N(CCc1ccccc1)C1O[C@H](CO)[C@@H](O[C@H]2O[C@H](CO)[C@@H](O)[C@H](O)[C@H]2O)[C@H](O)[C@H]1O (stereo partly drawn) [Compound 4, 1-(2-chloroethyl)-1-nitroso-3-phenethyl-3-[O-α-D-glucopyranosyl-(1→4)-D-glucopyranosyl]urea]",64,200 mg/kg/day,,2.6%,66.7%,,,,3.12 mg/kg/day,"Toxic (number of mice died/number of mice used) ([1]; 400 mg/kg/day i.p., 5 days): 5/5; inhibition in vivo at 3.12 mg/kg [1, 8]: 100%; inhibition in vivo at 12.5 mg/kg [1, 9]: 100%; inhibition in vivo at 50 mg/kg [1, 10]: 100%; inhibition in vivo at 200 mg/kg ([1]; Mus musculus, Ehrlich, ip, 120 h, 200 mg/kg/day i.p., 5 days, read-out: Inhibition ratio): 100%"
"CC(c1ccccc1)N(C(=O)N(CCCl)N=O)C1O[C@H](CO)[C@@H](O[C@H]2O[C@H](CO)[C@@H](O)[C@H](O)[C@H]2O)[C@H](O)[C@H]1O (stereo partly drawn) [Compound 5, 1-(2-chloroethyl)-1-nitroso-3-(α-methylbenzyl)-3-[O-α-D-glucopyranosyl-(1→4)-D-glucopyranosyl]urea]",128,400 mg/kg/day,,,6.2%,100%,100%,100%,3.12 mg/kg/day,"Toxic (number of mice died/number of mice used) ([1]; 800 mg/kg/day i.p., 5 days): 4/5; inhibition in vivo at 3.12 mg/kg [1, 8]: 100%; inhibition in vivo at 400 mg/kg [1, 6]: 100%"
"O=NN(CCCl)C(=O)N(Cc1cccs1)C1O[C@H](CO)[C@@H](O[C@H]2O[C@H](CO)[C@@H](O)[C@H](O)[C@H]2O)[C@H](O)[C@H]1O (stereo partly drawn) [Compound 7, 1-(2-chloroethyl)-1-nitroso-3-(thiophen-2-yl-methyl)-3-[O-α-D-glucopyranosyl-(1→4)-D-glucopyranosyl]urea]",256,400 mg/kg/day,6.2%,31.2%,100%,100%,100%,100%,1.56 mg/kg/day,"Toxic (number of mice died/number of mice used) ([1]; 800 mg/kg/day i.p., 5 days): 5/5; inhibition in vivo at 400 mg/kg [1, 6]: 100%"
"O=NN(CCCl)C(=O)N(Cc1ccccc1)C1OC[C@H](O)[C@H](O)[C@H]1O (stereo partly drawn) [Compound 11, 1-(2-chloroethyl)-1-nitroso-3-benzyl-3-(L-arabinopyranosyl)urea]",128,100 mg/kg/day,65.3%,100%,100%,100%,100%,100%,0.78 mg/kg/day,"Toxic (number of mice died/number of mice used) ([1]; 200 mg/kg/day i.p., 5 days): 5/5; inhibition in vivo at 0.19 mg/kg [1, 3]: 18.4%"
"O=NN(CCCl)C(=O)N(CC1CO1)C1OC[C@H](O)[C@H](O)[C@H]1O (stereo partly drawn) [Compound 12, 1-(2-chloroethyl)-1-nitroso-3-(oxiran-2-yl-methyl)-3-(L-arabinopyranosyl)urea]",128,50 mg/kg/day,100%,100%,,,,,0.39 mg/kg/day,"Toxic (number of mice died/number of mice used) ([1]; 100 mg/kg/day i.p., 5 days): 5/5; inhibition in vivo at 0.19 mg/kg [1, 3]: 20.9%; inhibition in vivo at 3.12 mg/kg [1, 8]: 100%; inhibition in vivo at 12.5 mg/kg [1, 9]: 100%; inhibition in vivo at 50 mg/kg [1, 10]: 100%"
"O=NN(CCCl)C(=O)N(Cc1ccco1)C1O[C@H](CO)[C@@H](O)[C@H]1O (stereo partly drawn) [Compound 14, 1-(2-chloroethyl)-1-nitroso-3-furfuryl-3-(D-ribofuranosyl)urea]",64,100 mg/kg/day,18.4%,30.6%,100%,100%,100%,100%,1.56 mg/kg/day,"Toxic (number of mice died/number of mice used) ([1]; 200 mg/kg/day i.p., 5 days): 5/5"
